# Measurements as given in PMC10305181, “A VEGFB-Based Peptidomimetic Inhibits VEGFR2-Mediated PI3K/Akt/mTOR and PLCγ/ERK Signaling and Elicits Apoptotic, Antiangiogenic, and Antitumor Activities” (Pharmaceuticals, 2023).
# Bridge positions count the residues as written; N and C are the ends. Peptide text beside a SMILES is read from it.
# Key:
# [1] = test system: signaling proteins in 4T1 MCT cells; assay: Western blot analysis, 4T1 cells; assay type: cell-based, murine
# Description: Next, VEGFR2 signaling was investigated in 4T1 MCTs. […] Considering the implication of the PI3K/AKT/mTOR signaling pathway in most human cancers, the effect of C-VGB3 on this pathway was evaluated in 4T1 MCT cells. […] The NF-κB pathway is an important target of AKT, which contributes to abnormal cell proliferation and differentiation, the inhibition of apoptosis, enhanced metastasis, and treatment resistance. Therefore, the inhibition of upstream AKT signaling would be expected to downregulate NF-κB and/or p-NF-κB.
# The levels of signaling proteins were investigated by the Western blot assay. 4T1 and HUVE cells stimulated by VEGF (20 ng·mL^−1) were treated with (0.40 μM) or without C-VGB3 (treatment and control groups, respectively) after starvation in a serum-free medium for 24 h. After washing with PBS buffer twice, the cells were treated with RIPA lysis buffer containing (Sigma, St. Louis, MO, USA). Bradford′s test was performed to estimate the protein concentration. Equal amounts of total protein were electrophoresed on a 10% SDS-polyacrylamide gel, separated, and then transferred to a nitrocellulose membrane. Nitrocellulose was soaked in a blocking buffer containing 5% dry milk, Tris-buffered saline, and Tween 20 (TBST) for 1 h at ambient temperature. The nitrocellulose membrane was then washed with wash buffer and treated with antibodies against VEGFR2 p-VEGFR2, AKT, p-AKT, PI3K, mTOR, p-mTOR, NF-κB, p-NFκB, P53, MDM2, Bax, Bcl2, Bid, Bim, Apaf-1, cytochrome c, caspase-9, Fas (CD95), DR4 (CD261), DR5 (CD262), caspase3, caspase7, caspase8, PARP1, ERK 1/2, p-ERK1/2, Ras, Raf, Cdk4, GSK-3β, cyclin D1, vimentin, N-cadherin, E-cadherin, FAK, p-FAK, paxillin, p-paxillin, and β-actin overnight at 4 °C. The next steps were performed as described previously. Because molecular weight ranges of target signaling proteins are very close, individual gels were run for separate signaling proteins (Figure S7).
# [2] = test system: HUVECs; assay: TUNEL assay, HUVECs; assay type: cell-based, human; details: 0.40 μM, n = 3, p < 0.0001
# Description: Periodic boundary conditions were used, and bonds were restrained by applying the LINCS algorithm to their equilibrium position. Initial structures were solvated with three-point model water molecules in a cubic box of 1.0 nm to fully cover the protein system in water, following periodic boundary conditions (PBC). The produced system for each peptide was neutralized through the “genion tool” plugin of the GROMACS package by adding ions Na+ and Cl−. Then, the system was minimized for 50000 iterations using the steepest descent (SD) algorithm and using velocity rescaling (modiﬁed Berendsen) temperature coupling and Parrinello-Rahman pressure coupling methods, simulated under an isothermal-isobaric ensemble (NPT) for 5 ns at a constant temperature, the pressure of 300 K, and 1 atm, respectively. The NVT and NPT equilibration was carried out for 50000 steps. The minimization and equilibration procedures were executed, and finally, one system of the peptide was subjected to a 200 ns production run of MD simulations utilizing 2 fs as the time step and coordinates of all atoms were recorded in the form of .trr GROMACS trajectory ﬁle every 10 ps.
# 2 × 10^3 HUVE or 4T1 cells were cultured in DMEM and RPMI-1640 media, respectively, supplemented with 10% (v/v) FBS overnight. Then, the cells were incubated in the media supplemented with 5% FBS, with PBS or C-VGB3 (0.40 μM). […]
smiles,measurement,setting,value
CC(C)C[C@@H]1NC(=O)CNC(=O)[C@H](CC(=O)O)NC(=O)[C@H](CC(=O)O)NC(=O)[C@@H]2CCCN2C(=O)[C@@H]2CCCN2C(=O)[C@H](CCCNC(=N)N)NC(=O)[C@@H](NC(=O)[C@@H](N)CCC(=O)O)CSSC[C@@H](C(=O)O)NC1=O [C-VGB3] (H-ECRPPDDGLC-OH; disulfide 2-10),increase in cleaved PARP1,"[1]; 4T1 (second of 'respectively'), 0.40 μM, p < 0.0001",4.05 fold
same,Fas expression,"[1]; 4T1, 0.40 μM",not affected
same,increase in Bax/Bcl2 ratio,"[1]; 4T1, 0.40 μM",~5.25 fold
same,increased level of cleaved caspase-3,"[1]; 4T1, 0.40 μM",4.0 times
same,increased level of cleaved caspase-7,"[1]; 4T1, 0.40 μM",4.1 times
same,increased level of cleaved caspase-9,"[1]; 4T1, 0.40 μM",3.5 times
same,Bax level,"[1]; 4T1, 0.40 μM, p < 0.0001",increased
same,DR4 level,"[1]; 4T1, 0.40 μM, p < 0.0001",increase
same,MDM2 level,"[1]; 4T1, 0.40 μM, p < 0.0001",markedly decreased
same,P53 level,"[1]; 4T1, 0.40 μM, p < 0.0001",enormously increased
same,VEGFR2 level,"[1]; 4T1, 0.40 μM, p < 0.0001",suppressed
same,paxillin,"[1]; 4T1, 0.40 μM, p < 0.0001",substantially inhibited
same,p-VEGFR2 level,"[1]; 4T1, 0.40 μM, p = 0.0001",suppressed
same,p-paxillin,"[1]; 4T1, 0.40 μM, p = 0.0001",substantially inhibited
same,Apaf-1,"[1]; 4T1, 0.40 μM, p = 0.001",promoted
same,Bcl2 expression,"[1]; 4T1, 0.40 μM, p = 0.001",decrease
same,Bid expression level,"[1]; 4T1, 0.40 μM, p = 0.001",increased
same,DR5 level,"[1]; 4T1, 0.40 μM, p = 0.001",increase
same,E-cadherin expression,"[1]; 4T1, 0.40 μM, p = 0.001",potently increased
same,FAK,"[1]; 4T1, 0.40 μM, p = 0.001",substantially inhibited
same,N-cadherin level,"[1]; 4T1, 0.40 μM, p = 0.001",reduced
same,p-AKT level,"[1]; 4T1, 0.40 μM, p = 0.001",significantly decreased
same,p-FAK,"[1]; 4T1, 0.40 μM, p = 0.001",substantially inhibited
same,p-mTOR level,"[1]; 4T1, 0.40 μM, p = 0.001",significantly decreased
same,Bim level,"[1]; 4T1, 0.40 μM, p = 0.02",increased
same,NF-κB level,"[1]; 4T1, 0.40 μM, p = 0.02",decreased levels
same,PI3K level,"[1]; 4T1, 0.40 μM, p = 0.02",significantly decreased
same,cytochrome c release,"[1]; 4T1, 0.40 μM, p = 0.02",promoted
same,mTOR level,"[1]; 4T1, 0.40 μM, p = 0.02",significantly decreased
same,p-NF-κB level,"[1]; 4T1, 0.40 μM, p = 0.02",decreased levels
same,vimentin level,"[1]; 4T1, 0.40 μM, p = 0.02",reduced
same,TUNEL fluorescent labeling,[2],fluorescent-labeled more than control cells
